Assay [1] relates to Synechocystis 6803 transformed with pKW 1188. Nature of the assay: Growth on BG-11 agar plate containing PPT or Bialaphos, vector transformant. The format is cell-based. The conditions noted are these: Bialaphos at 5 micrograms/ml. The protocol:
(§1) Dilution of transformed Synechocystis 6803 was plated on BG-11 agar plate containing PPT (Table 4).

The test system of assay [2] is Synechocystis 6803 transformed with pWP3210. Nature of the assay: Growth on BG-11 agar plate containing PPT or Bialaphos, bar gene transformant. It is filed as cell-based. The following applies: Bialaphos at 5 micrograms/ml. The protocol: as §1

The text below walks through data of patent publication US6335008B1, “Hybrid genes incorporating a DNA fragment containing at least one gene encoding an insecticidal protein and a gene encoding a glutamine synthase inhibitor, plasmids, transformed cyanobacteria expressing such proteins and method for use as biocontrol agent” (priority 1987, dated 2002).

Regarding `C[C@H](NC(=O)[C@H](C)NC(=O)[C@@H](N)CCP(C)(=O)O)C(=O)O` [Bialaphos], the “growth on Bialaphos” value in assay [1] and in assay [2] was “neither of these two transformants grow” in each case.
